How the values were obtained:
Echinochloa oryzicola = assay: Herbicidal efficacy test by pre-emergence treatment under submergence condition; assay type: in vivo; details: 15th day after treatment, ratings of 1 to 5
Cyperus difformis = assay: as above; assay type: in vivo; details: 15th day after treatment, ratings of 1 to 5; further: key: 1 shows no influence; 5 shows complete die
[1] = test system: annual broadleaf weeds such as Lindernia procumbens, Rotala indica and Elatine triandra; assay: as above; assay type: in vivo; details: 15th day after treatment, ratings of 1 to 5
Monochoria vaginalis = assay: as above; assay type: in vivo; details: 15th day after treatment, ratings of 1 to 5; further: key: 1 shows no influence; 5 shows complete die
Scirpus juncoides = assay: as above; assay type: in vivo; details: 15th day after treatment, ratings of 1 to 5
Eleocharis acicularis = assay: as above; assay type: in vivo; details: 15th day after treatment, ratings of 1 to 5; further: key: 1 shows no influence; 5 shows complete die
From the text: (§3) A 1/10,000-are pot was filled with paddy field soil, and, after plowing, seeds of Echinochloa oryzicola, Cyperus difformis, Monochoria vaginalis, Scirpus juncoides, Eleocharis acicularis and other annual broadleaf weeds such as Lindernia procumbens, Rotala indica and Elatine triandra were sown. Rice (oryza sativa) seedlings (cultiver “Koshihikari”) at a 2.5-leaf stage were transplanted and kept under a submergence condition. After one day, the wettable powder or emulsifiable concentrate of the compound of the present invention, prepared according to Preparation Example, was diluted and dropped on a water surface at a predetermined dose.

Amaranthus viridis [2] = assay: Herbicidal efficacy test by soil treatment before germination under upland field condition; assay type: in vivo; details: dose 1 kg/ha; 21st day after treatment; ratings of 1 to 5; further: key: 1 shows no influence; 5 shows complete die
From the text: (§1) A vat having an area of 5×10 cm^2 and a depth of 5 cm was filled with upland field soil, and seeds of Chenopodium album, Echinochloa crus-galli, Amaranthus viridis, Digitaria ciliaris and sweet corn (Zea mays) were sown thereon and covered with soil by a depth of 0.5 cm.

Chenopodium album [3] = assay: as above; assay type: in vivo; details: dose 1 kg/ha; 21st day after treatment; ratings of 1 to 5
From the text: as §1

Digitaria ciliaris = assay: as above; assay type: in vivo; details: dose 1 kg/ha; 21st day after treatment; ratings of 1 to 5
From the text: as §1

Echinochloa crus-galli [4] = assay: as above; assay type: in vivo; details: dose 1 kg/ha; 21st day after treatment; ratings of 1 to 5
From the text: as §1

sweet corn (Zea mays) = assay: Injury to corn, soil treatment before germination under upland field condition; assay type: in vivo; details: dose 1 kg/ha; 21st day after treatment; ratings of 1 to 5
From the text: as §1

Amaranthus viridis [5] = assay: Herbicidal efficacy test by foliar treatment after germination under upland field condition; assay type: in vivo; details: dose 1 kg/ha, rated 1 to 5 on the 14th day after treatment; further: key: 1 shows no influence; 5 shows complete die
From the text: (§2) A vat having an area of 5×10 cm^2 and a depth of 5 cm was filled with upland field soil, and seeds of Chenopodium album, Echinochloa crus-galli, Amaranthus viridis and Abutilon theophrasti were sown thereon and covered with soil by a depth of 0.5 cm. Water was sprayed as required to grow them for 14 days.

Chenopodium album [6] = assay: as above; assay type: in vivo; details: dose 1 kg/ha, rated 1 to 5 on the 14th day after treatment
From the text: as §2

Echinochloa crus-galli [7] = assay: as above; assay type: in vivo; details: dose 1 kg/ha, rated 1 to 5 on the 14th day after treatment
From the text: as §2

Abutilon theophrasti = assay: as above; assay type: in vivo; details: Dc: Digitaria ciliaris (table footnote; method names Abutilon theophrasti), dose 1 kg/ha, rated 1 to 5 on the 14th day after treatment
[8] = test system: Rice (oryza sativa) seedlings (cultiver Koshihikari); details: in vivo
From the text: as §3
Wherever Herbicidal activity Ca is given: key: 1 shows no influence; 5 shows complete die.

SMILES | Herbicidal efficacy Eo (Echinochloa oryzicola; dose 0.5 kg/ha) | Herbicidal efficacy Eo (Echinochloa oryzicola; dose 1 kg/ha) | Herbicidal efficacy Cd (Cyperus difformis; dose 0.5 kg/ha) | Herbicidal efficacy Cd (Cyperus difformis; dose 1 kg/ha) | Herbicidal efficacy Blw ([1]; dose 0.5 kg/ha) | Herbicidal efficacy Blw ([1]; dose 1 kg/ha) | Herbicidal efficacy Mv (Monochoria vaginalis; dose 0.5 kg/ha) | Herbicidal efficacy Mv (Monochoria vaginalis; dose 1 kg/ha) | Herbicidal efficacy Sj (Scirpus juncoides; dose 0.5 kg/ha) | Herbicidal efficacy Sj (Scirpus juncoides; dose 1 kg/ha) | Herbicidal efficacy Ea (Eleocharis acicularis; dose 0.5 kg/ha) | Herbicidal efficacy Ea (Eleocharis acicularis; dose 1 kg/ha) | Herbicidal activity Av (Amaranthus viridis [2]) | Herbicidal activity Ca (Chenopodium album [3]) | Herbicidal activity Dc (Digitaria ciliaris) | Herbicidal activity Ec (Echinochloa crus-galli [4]) | Injury Zm (sweet corn (Zea mays)) | Herbicidal activity Av (Amaranthus viridis [5]) | Herbicidal activity Ca (Chenopodium album [6]) | Injury Os [8] | also measured
CCCNC(=O)n1nc(Oc2c(Cl)cc(C(F)(F)F)cc2Cl)cc1C [Compound 3-74] | 5 | 5 | 5 | 5 | 5 | 5 | 5 | 5 | 5 | 5 | 5 | 5 | 5 | 5 | 5 | 4.9 | 1 | 5 | 5 | 1.8 | Herbicidal activity Ec (Echinochloa crus-galli [7]): 4.9; Herbicidal activity Dc (Abutilon theophrasti): 5
Cc1cc(Oc2c(Cl)cc(C(F)(F)F)cc2Cl)nn1C(N)=O [Compound 3-3] | 5 | 5 | 5 | 5 | 5 | 5 | 5 | 5 | 5 | 5 | 5 | 5 | 5 | 5 | 4.5 | 3.5 | 1.5 | 5 | 5 | 1.5 | Herbicidal activity Ec (Echinochloa crus-galli [7]): 4.5; Herbicidal activity Dc (Abutilon theophrasti): 5
Cc1cc(Oc2c(Cl)cc(C(F)(F)F)cc2Cl)nn1C(=O)NCC1CCCO1 (centres unmarked) [Compound 3-183] | 5 | 5 | 5 | 5 | 5 | 5 | 5 | 5 | 5 | 5 | 5 | 5 | 5 | 5 | 4 | 3 | 1 | 5 | 5 | 2 | Herbicidal activity Ec (Echinochloa crus-galli [7]): 5; Herbicidal activity Dc (Abutilon theophrasti): 5
COCNC(=S)n1nc(Oc2c(Cl)cc(C(F)(F)F)cc2Cl)cc1C [Compound 3-169] | 5 | 5 | 5 | 5 | 5 | 5 | 5 | 5 | 4 | 4.2 | 5 | 5 |  |  |  |  |  |  |  | 1 | 
Cc1cc(Oc2c(Cl)cc(C(F)(F)F)cc2Cl)nn1C(=O)NCCBr [Compound 3-146] | 5 | 5 | 5 | 5 | 5 | 5 | 5 | 5 | 5 | 5 | 5 | 5 |  |  |  |  |  |  |  | 1 | 
CCNC(=O)n1nc(Oc2c(Cl)cc(C(F)(F)F)cc2Cl)cc1CC [Compound 3-330] | 5 | 5 | 5 | 5 | 5 | 5 | 5 | 5 | 5 | 5 | 5 | 5 | 5 | 5 | 5 | 3.5 | 1.5 | 5 | 5 |  | Herbicidal activity Ec (Echinochloa crus-galli [7]): 5; Herbicidal activity Dc (Abutilon theophrasti): 5
